Converted amounts (≈) assume the structure as drawn. Starred links: 1 amine or outer side, 2 acyl side, 3 side chain; linkers in the order of their positions; H or OH if unused. Positions of bridges follow the written chain, without caps; N, C: chain ends. Non-standard residues stand in square brackets, D forms with d. Residues, ends and D or L forms follow the SMILES beside them. ξ: configuration not given here. *: point of attachment. X2 = N=C1NCCC([C@H](N[*:1])C(=O)[*:2])N1; ΔAla(Z-3-ureido) = NC(=O)N/C=C(\N)C(=O)O; ξβ3hOrn = NCCCC(N)CC(=O)*; Dap = NC[C@H](N)C(=O)O
Tests used:
[1] = system: Mycobacterium tuberculosis; test: Antimycobacterial activity against Mycobacterium tuberculosis harbouring katG gene; type: functional
[2] = system: Mycobacterium tuberculosis; test: Antimycobacterial activity against Mycobacterium tuberculosis harbouring fdxA gene; type: functional
[3] = system: Mycobacterium tuberculosis; test: Antimycobacterial activity against Mycobacterium tuberculosis Rv3790 harbouring DprE1 gene; type: functional
[4] = system: Mycobacterium tuberculosis; test: Antimycobacterial activity against Mycobacterium tuberculosis Rv1302 harbouring wecA gene; type: functional
[5] = system: Mycobacterium tuberculosis; test: Antimycobacterial activity against Mycobacterium tuberculosis Rv1302 harbouring rfe gene; type: functional
[6] = system: Mycobacterium tuberculosis; test: Antimycobacterial activity against Mycobacterium tuberculosis Rv2156c harbouring mraY gene; type: functional
[7] = system: Mycobacterium tuberculosis; test: Antimycobacterial activity against Mycobacterium tuberculosis harbouring rrs gene; type: functional
[8] = system: Mycobacterium tuberculosis; test: Antimycobacterial activity against rifampicin-resistant Mycobacterium tuberculosis; type: functional
[9] = system: Mycobacterium tuberculosis; test: Antimycobacterial activity against Mycobacterium tuberculosis 000019 harbouring rrs gene; type: functional
[10] = system: Mycobacterium tuberculosis; test: Antimycobacterial activity against Mycobacterium tuberculosis harbouring thyA gene; type: functional
[11] = system: Mycobacterium tuberculosis; test: Antimycobacterial activity against Mycobacterium tuberculosis Rv0503c harbouring cmaA2 gene; type: functional
[12] = system: Mycobacterium tuberculosis; test: Antimycobacterial activity against Mycobacterium tuberculosis Rv0050 harbouring ponA1 gene; type: functional
[13] = system: Mycobacterium tuberculosis; test: Antimycobacterial activity against Mycobacterium tuberculosis Rv2068c harbouring blaC gene; type: functional
[14] = system: Mycobacterium tuberculosis; test: Antimycobacterial activity against drug-resistant Mycobacterium tuberculosis; type: functional
[15] = system: Mycobacterium tuberculosis; test: Antimycobacterial activity against Mycobacterium tuberculosis Rv1305 harbouring atpE gene; type: functional
[16] = system: Mycobacterium tuberculosis; test: Antimycobacterial activity against extensively drug resistant Mycobacterium tuberculosis clinical isolates; type: functional
[17] = system: Mycobacterium tuberculosis; test: Antimycobacterial activity against multi-drug resistant Mycobacterium tuberculosis clinical isolates; type: functional
[18] = system: Mycobacterium tuberculosis; test: Antimycobacterial activity against Mycobacterium tuberculosis Rv2163c harbouring pbpB gene; type: functional
[19] = system: Mycobacterium tuberculosis; test: Antimycobacterial activity against Mycobacterium tuberculosis Rv2163c harbouring ftsI gene; type: functional
[20] = system: Mycobacterium tuberculosis; test: Antimycobacterial activity against Mycobacterium tuberculosis Rv0006 harbouring gyrA gene; type: functional
[21] = system: Mycobacterium tuberculosis; test: Antimycobacterial activity against Mycobacterium tuberculosis Rv0005 harbouring gyrB gene; type: functional
[22] = system: Mycobacterium tuberculosis; test: Antimycobacterial activity against Mycobacterium tuberculosis Rv0706 harbouring rplV gene; type: functional
[23] = system: Mycobacterium tuberculosis; test: Antimycobacterial activity against Mycobacterium tuberculosis harbouring embCAB gene; type: functional
[24] = system: Mycobacterium tuberculosis; test: microbe, parasite or virus in culture

Compound CCOC(=O)NC(=O)c1ccsc1NC(=O)c1nc2ccccc2s1 has an MIC [1] of 0.01 µg/mL (≈ 0.0266 µM), an MIC [2] of 0.01 µg/mL (≈ 0.0266 µM) and an MIC [3] of 0.01 µg/mL (≈ 0.0266 µM).
CCCCc1ccc(NC(=O)C2=CCN(C)[C@@H]([C@H](O[C@@H]3O[C@H](CN)[C@@H](O)[C@H]3O)[C@H]3O[C@@H](n4ccc(=O)[nH]c4=O)[C@H](O)[C@@H]3O)C(=O)N2C)cc1 was tested, and the MIC [4] was 1.56 µg/mL (≈ 2.27 µM) and the MIC [5] was 1.56 µg/mL (≈ 2.27 µM).
In the case of CCCCCCCCCC(=O)O[C@H]1[C@@H](OC)[C@H]([C@H](O[C@@H]2OC(C(=O)N[C@@H]3CCC[C@H](C)NC3=O)=C[C@@H](O)[C@H]2O)[C@H](N)O)O[C@@H]1n1ccc(=O)[nH]c1=O, the MIC [6] is reported as 0.12 µg/mL (≈ 0.162 µM).
Work on N=C1NCCC([C@@H]2NC(=O)/C(=C/NC(N)=O)NC(=O)[C@H](CNC(=O)CC(N)CCCN)NC(=O)[C@H](CO)NC(=O)[C@@H](N)CNC2=O)N1 (stereo partly drawn) (H-[Dap]S[Dap](ξβ3hOrn)[ΔAla(Z-3-ureido)][X2]; lactam 1-C) yielded an MIC [7] of 1.25 µg/mL (≈ 1.87 µM).
Work on COc1ccc2c3c(c4cc(OC)c(OC)cc4c2c1)CN1CCCC1C3 (stereo not drawn) [(+/-)-DEOXYTYLOPHORININE] yielded an MIC [8] of 6.25 µg/mL (≈ 17.2 µM).
For NCC[C@H](O)C(=O)N[C@@H]1C[C@H](N)[C@@H](O[C@H]2O[C@H](CN)[C@@H](O)[C@H](O)[C@H]2O)[C@H](O)[C@H]1O[C@H]1O[C@H](CO)[C@@H](O)[C@H](N)[C@H]1O [AMIKACIN], the MIC [9] was 0.12 µg/mL (≈ 0.205 µM).
Work on Nc1ccc(C(=O)O)c(O)c1 [AMINOSALICYLIC ACID] yielded an MIC [10] of 1 µg/mL (≈ 6.53 µM).
For CC(=O)Nc1ccc(/C=N/NC(N)=S)cc1 [AMITHIOZONE], the MIC [11] was 0.1 µg/mL (≈ 0.423 µM).
With CC1(C)S[C@@H]2[C@H](NC(=O)[C@H](N)c3ccc(O)cc3)C(=O)N2[C@H]1C(=O)O [AMOXICILLIN] the MIC [12] was 10 µg/mL and the MIC [13] was 10 µg/mL.
COc1nc2ccc(Br)cc2cc1[C@@H](c1ccccc1)[C@@](O)(CCN(C)C)c1cccc2ccccc12 [BEDAQUILINE] showed an MIC [14] of 60 µg/mL (≈ 108 µM) and an MIC [15] of 0.063 µg/mL (≈ 0.113 µM).
C[C@H]1COC2(CCN(c3nc(=O)c4cc(C(F)(F)F)cc([N+](=O)[O-])c4s3)CC2)O1 [BTZ-043] was tested, and the MIC [16] was 0.001 µg/mL (≈ 0.00232 µM), the MIC [3] was 0.001 µg/mL (≈ 0.00232 µM) and the MIC [17] was 0.0001 µg/mL (≈ 0.000232 µM).
For CC1(C)C[C@@H]1C(=O)N/C(=C\CCCCSC[C@H](N)C(=O)O)C(=O)O [CILASTATIN], the MIC [18] was 0.16 µg/mL and the MIC [19] was 0.16 µg/mL (≈ 0.446 µM).
In the case of O=C(O)c1cn(C2CC2)c2cc(N3CCNCC3)c(F)cc2c1=O [CIPROFLOXACIN], the MIC [20] is reported as 0.125 µg/mL (≈ 0.377 µM) and the MIC [21] is reported as 0.125 µg/mL (≈ 0.377 µM).
CC[C@H]1OC(=O)[C@H](C)[C@@H](O[C@H]2C[C@@](C)(OC)[C@@H](O)[C@H](C)O2)[C@H](C)[C@@H](O[C@@H]2O[C@H](C)C[C@H](N(C)C)[C@H]2O)[C@](C)(OC)C[C@@H](C)C(=O)[C@H](C)[C@@H](O)[C@]1(C)O [CLARITHROMYCIN] gave an MIC [22] of 1 µg/mL (≈ 1.34 µM).
In the case of O=C(O)[C@H]1/C(=C/CO)O[C@@H]2CC(=O)N21 [CLAVULANIC ACID], the MIC [18] is reported as 0.23 µM, the MIC [12] is reported as 0.23 µM and the MIC [13] is reported as 0.23 µM.
CC[C@@H](CO)NCCN[C@@H](CC)CO [ETHAMBUTOL] gave an MIC [23] of 1 µg/mL (≈ 4.89 µM).
Work on CCc1cc(C(N)=S)ccn1 [ETHIONAMIDE] yielded an MIC [24] of 0.6 µg/mL (≈ 3.61 µM).
COc1c(N2CCNC(C)C2)c(F)cc2c(=O)c(C(=O)O)cn(C3CC3)c12 (stereo not given) [GATIFLOXACIN] showed an MIC [20] of 1 µg/mL (≈ 2.66 µM) and an MIC [21] of 1 µg/mL (≈ 2.66 µM).
